Measurements: ChEMBL document CHEMBL5291721, “A preclinical secondary pharmacology resource illuminates target-adverse drug reaction associations of marketed drugs” (Nat Commun, 2023)

Columns and labels:
[1] = target: T1, Alpha-1A adrenergic receptor (Homo sapiens, UniProt P35348)
T1 sequence (P35348 whole entry): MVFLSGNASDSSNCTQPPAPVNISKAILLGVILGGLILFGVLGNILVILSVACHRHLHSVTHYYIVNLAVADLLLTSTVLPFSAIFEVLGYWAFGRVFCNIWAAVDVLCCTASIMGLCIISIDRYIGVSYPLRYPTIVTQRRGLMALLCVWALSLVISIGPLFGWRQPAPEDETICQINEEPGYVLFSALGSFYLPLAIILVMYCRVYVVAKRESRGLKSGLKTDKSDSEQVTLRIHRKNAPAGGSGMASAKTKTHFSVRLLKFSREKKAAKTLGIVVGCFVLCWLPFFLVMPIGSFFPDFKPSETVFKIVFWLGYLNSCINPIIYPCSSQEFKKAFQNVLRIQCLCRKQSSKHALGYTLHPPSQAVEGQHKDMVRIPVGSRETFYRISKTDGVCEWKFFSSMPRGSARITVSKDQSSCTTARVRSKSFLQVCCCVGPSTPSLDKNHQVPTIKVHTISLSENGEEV

[2] = target: Beta-2 adrenergic receptor (Homo sapiens, UniProt P07550)
Sequence of Beta-2 adrenergic receptor (P07550 whole entry): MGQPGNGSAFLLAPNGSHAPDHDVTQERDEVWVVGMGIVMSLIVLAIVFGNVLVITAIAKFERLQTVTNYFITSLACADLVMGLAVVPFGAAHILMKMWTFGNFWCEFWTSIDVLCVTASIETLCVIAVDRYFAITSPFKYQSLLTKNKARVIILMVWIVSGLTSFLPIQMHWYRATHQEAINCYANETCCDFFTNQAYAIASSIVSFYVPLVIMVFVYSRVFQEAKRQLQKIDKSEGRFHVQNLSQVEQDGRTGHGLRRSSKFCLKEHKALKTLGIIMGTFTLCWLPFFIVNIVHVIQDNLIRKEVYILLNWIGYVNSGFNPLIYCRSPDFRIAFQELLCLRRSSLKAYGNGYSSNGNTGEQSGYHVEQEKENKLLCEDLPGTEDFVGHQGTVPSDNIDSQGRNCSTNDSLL

[3] = target: Cannabinoid receptor 1 (Homo sapiens, UniProt P21554)
Sequence of Cannabinoid receptor 1 (P21554 whole entry): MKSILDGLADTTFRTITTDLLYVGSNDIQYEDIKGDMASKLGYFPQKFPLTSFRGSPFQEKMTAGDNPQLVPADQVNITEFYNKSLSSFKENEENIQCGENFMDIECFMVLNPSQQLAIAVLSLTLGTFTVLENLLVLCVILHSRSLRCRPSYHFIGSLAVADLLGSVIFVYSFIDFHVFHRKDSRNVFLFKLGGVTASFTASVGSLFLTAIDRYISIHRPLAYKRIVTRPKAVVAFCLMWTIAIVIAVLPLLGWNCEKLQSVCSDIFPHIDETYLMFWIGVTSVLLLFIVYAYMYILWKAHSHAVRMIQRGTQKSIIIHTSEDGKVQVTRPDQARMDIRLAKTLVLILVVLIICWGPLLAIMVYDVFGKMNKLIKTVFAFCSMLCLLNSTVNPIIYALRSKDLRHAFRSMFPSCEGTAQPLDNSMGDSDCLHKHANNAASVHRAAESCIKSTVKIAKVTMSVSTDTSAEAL

[4] = target: T2, 5-hydroxytryptamine receptor 1A (Homo sapiens, UniProt P08908); format: functional, cell-based
T2 sequence (P08908 whole entry): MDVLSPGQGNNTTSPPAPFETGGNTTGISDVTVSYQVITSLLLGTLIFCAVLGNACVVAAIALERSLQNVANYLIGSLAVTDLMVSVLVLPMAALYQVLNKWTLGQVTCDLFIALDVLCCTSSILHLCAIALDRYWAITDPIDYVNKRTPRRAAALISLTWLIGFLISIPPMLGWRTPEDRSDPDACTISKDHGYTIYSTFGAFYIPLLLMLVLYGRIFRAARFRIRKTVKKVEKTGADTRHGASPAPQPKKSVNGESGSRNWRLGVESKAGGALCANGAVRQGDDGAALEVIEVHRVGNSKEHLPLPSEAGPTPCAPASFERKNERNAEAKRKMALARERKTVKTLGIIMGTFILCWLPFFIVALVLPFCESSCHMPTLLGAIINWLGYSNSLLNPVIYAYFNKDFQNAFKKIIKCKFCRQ

[5] = target: 5-hydroxytryptamine receptor 2A (Homo sapiens, UniProt P28223); format: functional, cell-based
Sequence of 5-hydroxytryptamine receptor 2A (P28223 whole entry): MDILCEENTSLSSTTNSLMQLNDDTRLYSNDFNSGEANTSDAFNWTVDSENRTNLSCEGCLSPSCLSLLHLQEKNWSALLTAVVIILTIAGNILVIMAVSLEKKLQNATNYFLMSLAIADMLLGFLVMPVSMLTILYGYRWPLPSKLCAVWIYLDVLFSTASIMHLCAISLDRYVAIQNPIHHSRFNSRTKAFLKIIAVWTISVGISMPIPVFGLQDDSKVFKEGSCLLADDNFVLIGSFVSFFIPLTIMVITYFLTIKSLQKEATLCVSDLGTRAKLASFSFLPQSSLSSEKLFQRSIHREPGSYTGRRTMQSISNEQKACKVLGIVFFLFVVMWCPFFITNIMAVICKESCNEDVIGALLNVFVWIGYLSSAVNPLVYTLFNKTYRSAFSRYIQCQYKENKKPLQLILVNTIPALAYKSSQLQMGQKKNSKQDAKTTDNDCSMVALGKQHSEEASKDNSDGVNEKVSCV

[6] = target: 5-hydroxytryptamine receptor 2B (Homo sapiens, UniProt P41595); format: functional, cell-based
Sequence of 5-hydroxytryptamine receptor 2B (P41595 whole entry): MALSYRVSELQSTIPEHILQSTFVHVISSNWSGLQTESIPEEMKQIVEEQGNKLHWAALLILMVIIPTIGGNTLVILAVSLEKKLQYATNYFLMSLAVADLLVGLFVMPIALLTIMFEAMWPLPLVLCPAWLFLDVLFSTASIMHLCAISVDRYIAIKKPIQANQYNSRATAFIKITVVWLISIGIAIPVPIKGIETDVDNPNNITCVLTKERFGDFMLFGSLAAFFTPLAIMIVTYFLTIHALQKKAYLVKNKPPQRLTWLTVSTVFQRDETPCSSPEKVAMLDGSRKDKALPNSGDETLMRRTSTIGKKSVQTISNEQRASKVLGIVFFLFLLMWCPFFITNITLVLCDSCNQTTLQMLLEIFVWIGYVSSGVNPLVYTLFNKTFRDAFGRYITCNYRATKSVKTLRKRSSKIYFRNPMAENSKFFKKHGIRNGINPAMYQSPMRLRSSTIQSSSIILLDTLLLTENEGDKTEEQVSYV

[7] = target: T3, Glucocorticoid receptor (Homo sapiens, UniProt P04150)
T3 sequence (P04150 whole entry): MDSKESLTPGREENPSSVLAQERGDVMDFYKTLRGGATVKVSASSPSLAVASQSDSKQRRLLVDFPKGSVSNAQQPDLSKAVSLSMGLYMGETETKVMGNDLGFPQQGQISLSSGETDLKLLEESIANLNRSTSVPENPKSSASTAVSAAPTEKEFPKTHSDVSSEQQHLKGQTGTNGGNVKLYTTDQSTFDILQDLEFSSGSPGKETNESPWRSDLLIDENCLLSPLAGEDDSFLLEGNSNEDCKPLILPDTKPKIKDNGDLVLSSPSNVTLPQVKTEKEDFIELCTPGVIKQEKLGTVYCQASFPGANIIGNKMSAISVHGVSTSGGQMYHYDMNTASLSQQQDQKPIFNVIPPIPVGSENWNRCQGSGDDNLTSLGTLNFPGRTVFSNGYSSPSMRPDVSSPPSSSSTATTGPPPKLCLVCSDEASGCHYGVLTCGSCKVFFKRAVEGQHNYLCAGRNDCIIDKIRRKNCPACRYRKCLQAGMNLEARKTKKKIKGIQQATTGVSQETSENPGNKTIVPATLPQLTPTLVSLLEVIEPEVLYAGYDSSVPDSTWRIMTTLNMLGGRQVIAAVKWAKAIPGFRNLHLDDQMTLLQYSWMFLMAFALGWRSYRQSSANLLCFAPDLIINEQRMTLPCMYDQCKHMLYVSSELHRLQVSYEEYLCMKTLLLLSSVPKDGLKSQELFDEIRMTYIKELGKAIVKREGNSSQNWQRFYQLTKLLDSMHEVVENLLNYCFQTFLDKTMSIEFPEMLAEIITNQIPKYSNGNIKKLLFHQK

[8] = target: T4, Gastrin/cholecystokinin type B receptor (Homo sapiens, UniProt P32239)
T4 sequence (P32239 whole entry): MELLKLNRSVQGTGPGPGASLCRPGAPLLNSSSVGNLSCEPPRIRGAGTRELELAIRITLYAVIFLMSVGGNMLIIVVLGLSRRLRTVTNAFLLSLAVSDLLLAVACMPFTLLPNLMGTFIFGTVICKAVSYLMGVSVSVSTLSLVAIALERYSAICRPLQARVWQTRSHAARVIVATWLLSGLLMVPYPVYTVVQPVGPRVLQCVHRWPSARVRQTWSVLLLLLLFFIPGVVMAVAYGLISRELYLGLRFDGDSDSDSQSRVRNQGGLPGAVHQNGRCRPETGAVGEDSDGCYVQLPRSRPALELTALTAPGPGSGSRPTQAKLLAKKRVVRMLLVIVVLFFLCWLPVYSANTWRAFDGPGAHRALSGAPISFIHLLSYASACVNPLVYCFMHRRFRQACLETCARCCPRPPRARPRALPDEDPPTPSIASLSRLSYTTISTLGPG
Also: assay procedure not described here.

SMILES: CC1OC2(CS1)CN1CCC2CC1 (centres undefined) [CEVIMELINE]
- AC50 [1]: > 30 µM
- AC50 [2]: > 10 µM
- AC50 [3]: > 10 µM
- AC50 [4]: > 10 µM
- AC50 [5]: > 10 µM
- AC50 [6]: > 10 µM
- AC50 [7]: > 10 µM

SMILES: C[C@H](Cc1ccc(O)c(O)c1)[C@@H](C)Cc1ccc(O)c(O)c1 [MASOPROCOL]
- AC50 [1]: 8.61 µM
- AC50 [2]: > 10 µM
- AC50 [3]: 23.9 µM
- AC50 [5]: > 30 µM
- AC50 [6]: 11 µM
- AC50 [7]: 8.7 µM

SMILES: CC(C)(C)C(=O)OCC(=O)[C@H]1CC[C@H]2[C@@H]3CCC4=CC(=O)CC[C@]4(C)[C@H]3CC[C@]12C [DESOXYCORTICOSTERONE PIVALATE]
- AC50 [1]: > 10 µM
- AC50 [2]: > 10 µM
- AC50 [3]: > 10 µM
- AC50 [5]: > 10 µM
- AC50 [6]: > 10 µM

SMILES: CNCc1ccc(-c2[nH]c3cc(F)cc4c3c2CCNC4=O)cc1 [RUCAPARIB]
- AC50 [1]: 12.3 µM
- AC50 [2]: > 30 µM
- AC50 [8]: > 30 µM
- AC50 [5]: > 10 µM
- AC50 [7]: > 30 µM

SMILES: C=CCNc1nc(NCC=C)nc(N2CCN(C(c3ccc(F)cc3)c3ccc(F)cc3)CC2)n1 [ALMITRINE]
- AC50 [1]: > 30 µM
- AC50 [2]: > 30 µM
- AC50 [8]: > 30 µM
- AC50 [3]: > 30 µM
- AC50 [4]: > 30 µM
- AC50 [5]: > 30 µM
- AC50 [6]: > 30 µM
- AC50 [7]: > 30 µM

SMILES: CC(C)[C@H](N)C(=O)OCC(CO)OCn1cnc2c(=O)nc(N)[nH]c21 (some centres undefined) [VALGANCICLOVIR]
- AC50 [1]: > 30 µM
- AC50 [2]: > 30 µM
- AC50 [8]: > 30 µM
- AC50 [3]: > 30 µM
- AC50 [4]: > 30 µM
- AC50 [5]: > 30 µM
- AC50 [6]: > 30 µM
- AC50 [7]: > 30 µM

SMILES: CCC1(c2ccccc2)CCC(=O)NC1=O (centres undefined) [GLUTETHIMIDE]
- AC50 [1]: > 10 µM
- AC50 [2]: > 10 µM
- AC50 [3]: > 10 µM
- AC50 [4]: > 30 µM
- AC50 [5]: > 30 µM
- AC50 [6]: > 10 µM

SMILES: Nc1ncn([C@H]2C[C@H](O)[C@@H](CO)O2)c(=O)n1 [DECITABINE]
- AC50 [1]: > 30 µM
- AC50 [8]: > 30 µM
- AC50 [3]: > 30 µM
- AC50 [4]: > 30 µM
- AC50 [5]: > 30 µM
- AC50 [6]: > 30 µM
- AC50 [7]: > 30 µM

SMILES: CCOC(=O)c1cncn1[C@H](C)c1ccccc1 [ETOMIDATE]
- AC50 [1]: > 10 µM
- AC50 [2]: > 10 µM
- AC50 [3]: > 10 µM
- AC50 [4]: > 10 µM
- AC50 [5]: > 10 µM
- AC50 [6]: > 10 µM
- AC50 [7]: > 10 µM

SMILES: Clc1ccc(C(Cn2ccnc2)OCc2ccsc2Cl)c(Cl)c1 (centres undefined) [TIOCONAZOLE]
- AC50 [1]: 13.5 µM
- AC50 [2]: 10.6 µM
- AC50 [8]: > 30 µM
- AC50 [3]: > 30 µM
- AC50 [4]: > 30 µM
- AC50 [5]: > 30 µM
- AC50 [6]: > 30 µM
- AC50 [7]: 17.9 µM

SMILES: CCC(=O)O[C@H]1CC[C@H]2[C@@H]3CCC4=CC(=O)CC[C@]4(C)[C@H]3CC[C@]12C [TESTOSTERONE PROPIONATE]
- AC50 [1]: > 10 µM
- AC50 [2]: > 10 µM
- AC50 [3]: > 10 µM
- AC50 [4]: > 10 µM
- AC50 [5]: > 30 µM
- AC50 [6]: > 10 µM
- AC50 [7]: 0.109 µM
